Data from ChEMBL document CHEMBL3044882, “Mosquito larvicidal studies of some chalcone analogues and their derived products: structureactivity relationship analysis” (2011).
The source made the active and inactive calls. No cut-off for these calls is given here.

Tests used:
Culex quinquefasciatus [1] = assay: Toxicity against third instar larve of Culex quinquefasciatus after 24 hr; assay type: functional
Culex quinquefasciatus [2] = assay: Toxicity against third instar larve of Culex quinquefasciatus assessed as mortality at 100 ugcm'-3 after 24 hr; assay type: functional

SMILES	LC50 (Culex quinquefasciatus [1]) [umol/dm3]	mortality (Culex quinquefasciatus [2])
O=C(/C=C/c1ccccc1)c1ccc(O)cc1 [4'-HYDROXYCHALCONE]	238	–
CC(/C=C/c1ccccc1)=N\NC(N)=O	2087.9	–
O=C(/C=C/c1ccc([N+](=O)[O-])cc1)c1ccccc1O	881.6	–
C(=C\c1ccccc1)/C(=N/Nc1ccccc1)c1ccccc1	2134.5	–
O=C(/C=C/c1ccccc1)c1ccccc1 [CHALCONE]	90	100%
O=C(/C=C/c1ccc2c(c1)OCO2)c1ccccc1	5	–
O=[N+]([O-])c1ccc(NN=C(/C=C/c2ccccc2)/C=C/c2ccccc2)c([N+](=O)[O-])c1	2638.2	inactive
CC(/C=C/c1ccccc1)=N/O	345	–
O=C(/C=C/c1ccccc1)/C=C/c1ccccc1	2064.4	–
O=C(/C=C/C=C/c1ccccc1)c1ccccc1	437	–
COc1cccc(/C=C/C(=O)c2ccccc2)c1-c1ccc(O)cc1	1474	–
O=C(/C=C/c1ccco1)c1ccccc1O	19	100%
O=C(/C=C/c1ccc([N+](=O)[O-])cc1)c1ccccc1	959.5	–
O=C(/C=C/c1ccc2c(c1)OCO2)c1ccccc1O	986.1	–
CC(/C=C/c1ccccc1)=N\Nc1ccccc1	465	–
COc1cccc(/C=C/C(=O)c2ccccc2O)c1-c1ccc(O)cc1	684.9	–
O=C(/C=C/c1ccccc1)c1ccccc1O [2'-HYDROXYCHALCONE]	55	100%
CC(/C=C/c1ccccc1)=N\Nc1ccc([N+](=O)[O-])cc1[N+](=O)[O-]	2344.1	inactive
O=C(/C=C/c1ccc(Cl)cc1)c1ccccc1O	81	100%
O=C(/C=C/c1cccc([N+](=O)[O-])c1)c1ccc(O)cc1	89	–
O=C(/C=C/c1cccc([N+](=O)[O-])c1)c1ccccc1	994.4	–
O=C(/C=C/C=C/c1ccccc1)c1ccccc1O	1121.1	–
O=C(/C=C/c1ccccc1O)c1ccccc1	104	100%
O=C(/C=C/c1ccc(Cl)cc1)c1ccccc1 [4-CHLORO CHALCONE]	5	–
O=C(/C=C/c1cccc([N+](=O)[O-])c1)c1ccccc1O	526.6	–
O=C(/C=C/c1ccc([N+](=O)[O-])cc1)c1ccc(O)cc1	91	–
O=[N+]([O-])c1ccc(N/N=C(/C=C/c2ccccc2)c2ccccc2)c([N+](=O)[O-])c1	2531.3	inactive
